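Each compound was tested at five concentrations against cells in 96-well plates for 48 hours. Abbreviation: GI50, concentration required for 50% inhibition of growth.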 The source made the active and inactive calls. Cut-off read from the data, not from the text of the source: active = GI50 up to about 1.1 µM and inactive = higher. *1 amine or outer side, *2 acyl side, *3 side chain or, on linkers, in order; H or OH if unused. Where a SMILES comes first, the peptide text is derived from it. [ ]: non-standard residue; d: D form. The star is where a group is joined. ξ: configuration not given here. NMeY = CN[C@@H](Cc1ccc(O)cc1)C(=O)O; Ethylenediamine = C(CN[*:2])N[*:1]; ξNMeL = CNC(CC(C)C)C(=O)O; Cbz = O=C(OCc1ccccc1)*; Lac = C[C@H](O)C(=O)O; ξA = CC(N)C(=O)O
Legend:
Assay in all cases: inhibition of tumour cell growth, NCI panel, 48 h
[1] = system: 786-0
[2] = system: A498
[3] = system: A549
[4] = system: ACHN
[5] = system: BT-549
[6] = system: CAKI-1
[7] = system: CCRF-CEM
[8] = system: COLO 205
[9] = system: DU-145
[10] = system: EKVX
[11] = system: HCC 2998
[12] = system: HCT-116
[13] = system: HCT-15
[14] = system: HL-60
[15] = system: HOP-62
[16] = system: HOP-92
[17] = system: HT-29
[18] = system: Hs-578T
[19] = system: IGROV-1
[20] = system: K562
[21] = system: KM12
[22] = system: LOX IMVI
[23] = system: M14
[24] = system: MCF7
[25] = system: MDA-MB-231
[26] = system: MDA-MB-435
[27] = system: MDA-N
[28] = system: MOLT-4
[29] = system: Malme-3M
[30] = system: NCI-H226
[31] = system: NCI-H23
[32] = system: NCI-H460
[33] = system: NCI-H522
[34] = system: NCI/ADR-RES
[35] = system: OVCAR-3
[36] = system: OVCAR-4
[37] = system: OVCAR-5
[38] = system: OVCAR-8
[39] = system: PC-3
[40] = system: RPMI-8226
[41] = system: RXF 393
[42] = system: SF-268
[43] = system: SF-295
[44] = system: SF-539
[45] = system: SK-MEL-28
[46] = system: SK-MEL-2
[47] = system: SK-MEL-5
[48] = system: SK-OV-3
[49] = system: SN12C
[50] = system: SNB-19
[51] = system: SNB-75
[52] = system: SR
[53] = system: SW-620
[54] = system: T47D
[55] = system: TK-10
[56] = system: U-251
[57] = system: UACC-257
[58] = system: UACC-62
[59] = system: UO-31

Measured: GI50

COc1ccc(C[C@@H](C(=O)NCCNC(=O)C(CC(C)C)N(C)C(=O)[C@@H]2CCCN2C(=O)[C@H](C)O)N(C)C(=O)[C@@H]2CCCN2C(=O)[C@H](CC(C)C)NC(=O)C(C)NC(=O)OCc2ccccc2)cc1 (stereo partly drawn) (Cbz-[ξA]LP[NMeY](Me)-{Ethylenediamine-ξNMeL-Pro-Lac})
inactive: [1] > 100 µM | [2] > 100 µM | [3] > 100 µM | [4] > 100 µM | [5] > 100 µM | [6] > 100 µM | [7] 34.6 µM | [8] 77.6 µM | [9] > 100 µM | [10] > 100 µM | [11] > 100 µM | [12] > 100 µM | [14] 38.4 µM | [15] > 100 µM | [16] 68.9 µM | [17] 72.3 µM | [18] 12.9 µM | [19] > 100 µM | [20] 40.6 µM | [21] > 100 µM | [22] 37 µM | [23] > 100 µM | [24] 43.9 µM | [25] 91.4 µM | [26] 54.2 µM | [27] 66.8 µM | [28] 29 µM | [29] > 100 µM | [30] > 100 µM | [31] > 100 µM | [32] > 100 µM | [33] > 100 µM | [34] > 100 µM | [35] > 100 µM | [36] > 100 µM | [37] > 100 µM | [38] > 100 µM | [39] > 100 µM | [40] 33.9 µM | [41] 97.7 µM | [42] > 100 µM | [43] > 100 µM | [44] > 100 µM | [45] > 100 µM | [46] > 100 µM | [47] 33.5 µM | [48] > 100 µM | [49] > 100 µM | [50] > 100 µM | [51] 89.5 µM | [52] 54.3 µM | [53] > 100 µM | [54] 72.6 µM | [55] > 100 µM | [56] > 100 µM | [57] 46.1 µM | [58] 96.2 µM | [59] > 100 µM
82 µM: [13]

CCC(CO)Nc1nc(NCc2ccccc2)c2ncn(C(C)C)c2n1 (stereo not drawn) [(RS)-ROSCOVITINE]
inactive: [1] 20.2 µM | [2] 23.9 µM | [3] 23.3 µM | [4] 18.8 µM | [5] 18.5 µM | [6] 17.4 µM | [7] 22.6 µM | [8] 15 µM | [9] 35.8 µM | [10] 18.2 µM | [11] 15.3 µM | [12] 8.38 µM | [14] 17.5 µM | [15] 11.9 µM | [16] 17.2 µM | [17] 18.8 µM | [18] 4.58 µM | [19] 14.8 µM | [20] 46.6 µM | [21] 12.7 µM | [22] 16.5 µM | [23] 16.8 µM | [24] 15.7 µM | [25] 25.8 µM | [26] 23.4 µM | [27] 30.3 µM | [28] 28.5 µM | [29] 25.7 µM | [30] 15 µM | [31] 13.6 µM | [32] 16.2 µM | [33] 16.5 µM | [34] 15.4 µM | [35] 9.23 µM | [36] 20.2 µM | [37] 20.7 µM | [38] 16.7 µM | [39] 17.9 µM | [40] 22.6 µM | [41] 7.66 µM | [42] 13.7 µM | [43] 19.3 µM | [44] 12.6 µM | [45] 12.8 µM | [46] 20.7 µM | [47] 15.8 µM | [48] 57.8 µM | [49] 32.7 µM | [50] 34.9 µM | [51] 13.8 µM | [52] 7.1 µM | [53] 25.2 µM | [54] 32.8 µM | [55] 24.4 µM | [56] 27.9 µM | [57] 30.3 µM | [58] 12.8 µM | [59] 12.4 µM
17.9 µM: [13]

From ChEMBL document CHEMBL1201862, “PubChem BioAssay data set” (2004)
